The values below are quoted from earlier work in US20080113031A1, “Minicapsule Formulations” (priority 2004, published 2008).

Test in data set [1]: not given
The source holds these as a separate data set.

Take `COCCOC(=O)C1=C(C)NC(C)=C(C(=O)OC(C)C)C1c1cccc([N+](=O)[O-])c1` (centres unmarked) [Nimodipine]: the solubility in water entry is “practically insoluble”.

B1: PAL from Rhodosporidium toruloides: phenylalanine ammonia-lyase from Rhodosporidium toruloides (protein, UniProt P11544 1-716, looked up)
Phenylalanine/tyrosine …: MAPSLDSISHSFANGVASAKQAVNGASTNLAVAGSHLPTTQVTQVDIVEKMLAAPTDSTLELDGYSLNLGDVVSAARKGRPVRVKDSDEIRSKIDKSVEFLRSQLSMSVYGVTTGFGGSADTRTEDAISLQKALLEHQLCGVLPSSFDSFRLGRGLENSLPLEVVRGAMTIRVNSLTRGHSAVRLVVLEALTNFLNHGITPIVPLRGTISASGDLSPLSYIAAAISGHPDSKVHVVHEGKEKILYAREAMALFNLEPVVLGPKEGLGLVNGTAVSASMATLALHDAHMLSLLSQSLTAMTVEAMVGHAGSFHPFLHDVTRPHPTQIEVAGNIRKLLEGSRFAVHHEEEVKVKDDEGILRQDRYPLRTSPQWLGPLVSDLIHAHAVLTIEAGQSTTDNPLIDVENKTSHHGGNFQAAAVANTMEKTRLGLAQIGKLNFTQLTEMLNAGMNRGLPSCLAAEDPSLSYHCKGLDIAAAAYTSELGHLANPVTTHVQPAEMANQAVNSLALISARRTTESNDVLSLLLATHLYCVLQAIDLRAIEFEFKKQFGPAIVSLIDQHFGSAMTGSNLRDELVEKVNKTLAKRLEQTNSYDLVPRWHDAFSFAAGTVVEVLSSTSLSLAAVNAWKVAAAESAISLTRQVRETFWSAASTSSPALSYLSPRTQILYAFVREELGVKARRGDVFLGKQEVTIGSNVSKIYEAIKSGRINNVLLKMLA
Consider B1, for which the “activity at pH 2.2” value in data set [1] is “no activity”.
